From US20050032873A1, “3-Amino chroman and 2-amino tetralin derivatives” (Wyeth, priority 2003, published 2005) come the findings set out here.

SMILES strings stand for the structures. Counter-ions that a name gives are not always drawn.

In the case of `NC(=O)c1ccc(F)c2c1CC(N(CCc1c[nH]c3ccc(F)cc13)CC1CC1)CO2` (stereo not drawn) (as salt: hydrochloride) [Compound 78, 3-{(cyclopropylmethyl)[2-(5-fluoro-1H-indol-3-yl)ethyl]amino}-8-fluorochromane-5-carboxamide], the melting point (commonly the temperature, or range, at which the solid turns liquid) was 132 °C (dec.).

On to `NC(=O)c1ccc(F)c2c1OCC(N(CCCc1c[nH]c3c(F)cc(F)cc13)C1CCC1)C2` (stereo not drawn) (as salt: hydrochloride) [Compound 131, 3-{cyclobutyl[3-(5,7-difluoro-1H-indol-3-yl)propyl]amino}-5-fluorochromane-8-carboxamide], for which the melting point is 136 °C (dec.).

With `O=C(NC1CC1)c1ccc(F)c2c1CC(N(CCCc1c[nH]c3ccc(F)cc13)C1CCC1)CO2` (stereo not drawn) (as salt: hydrochloride) [Compound 64, 3-{cyclobutyl[3-(5-fluoro-1H-indol-3-yl)propyl]amino}-N-cyclopropyl-8-fluorochromane-5-carboxamide], the melting point is 134 °C (dec.).

Consider `NC(=O)c1ccc(F)c2c1CC(N(CCCCc1c[nH]c3ccc(F)cc13)C1CCC1)CO2` (stereo not drawn) (as salt: hydrochloride) [Compound 83, 3-{cyclobutyl[4-(5-fluoro-1H-indol-3-yl)butyl]amino}-8-fluorochromane-5-carboxamide], for which the melting point is 122 °C (dec.).

For the molecule `CCN(CCCc1c[nH]c2ccc(F)cc12)C1COc2cccc(OC)c2C1` (stereo not drawn) (as salt: hydrochloride) [Compound 31, N-ethyl-N-[3-(5-fluoro-1H-indol-3-yl)propyl]-5-methoxychroman-3-amine], the melting point is 91.2 °C (dec.).

On to `CCNC(=O)c1ccc(F)c2c1CC(N(CCCc1c[nH]c3ccc(F)cc13)C1CCC1)CO2` (stereo not drawn) (as salt: hydrochloride) [Compound 60, 3-{cyclobutyl[3-(5-fluoro-1H-indol-3-yl)propyl]amino}-N-ethyl-8-fluorochromane-5-carboxamide], for which the melting point was 130 °C (dec.).

For `CCCCN(CCCc1c[nH]c2ccc(F)cc12)C1COc2c(F)ccc(C(N)=O)c2C1` (stereo not drawn) (as salt: hydrochloride) [Compound 72, 3-{butyl[3-(5-fluoro-1H-indol-3-yl)propyl]amino}-8-fluorochromane-5-carboxamide], the melting point is 126 °C (dec.).

`CCCN(C1COc2cccc(OC)c2C1)[C@H]1CC[C@H](c2c[nH]c3ccc(F)cc32)CC1` (relative stereo) (as salt: hydrochloride) [Compound 183, trans-N-[4-(5-fluoro-1H-indol-3-yl)cyclohexyl]-5-methoxy-N-propylchroman-3-amine]: the melting point was 159 °C (dec.).

As to `N#Cc1ccc2[nH]cc(CCCN(C3CCC3)[C@@H]3COc4c(F)ccc(C(N)=O)c4C3)c2c1` (as salt: hydrochloride) [Compound 97a, (3S)-3-[[3-(5-cyano-1H-indol-3-yl)propyl](cyclobutyl)amino]-8-fluorochromane-5-carboxamide], the melting point was 170 to 177 °C (dec.).

`CNC(=O)c1ccc(F)c2c1C[C@H](N(CCCCc1c[nH]c3ccc(F)cc13)C1CCC1)CO2` (as salt: hydrochloride) [Compound 145a, (3S)-3-{cyclobutyl[4-(5-fluoro-1H-indol-3-yl)butyl]amino}-8-fluoro-N-methylchromane-5-carboxamide]: the melting point is 125 °C (dec.).

As for `CNC(=O)c1ccc(F)c2c1CC(N(CCCCc1c[nH]c3ccc(F)cc13)CC1CC1)CO2` (stereo not drawn) (as salt: hydrochloride) [Compound 94, 3-{(cyclopropylmethyl)[4-(5-fluoro-1H-indol-3-yl)butyl]amino}-8-fluoro-N-methylchromane-5-carboxamide], the melting point was 112 °C (dec.).

With `COc1cccc2c1CC(N(CCCc1cn(C)c3ccc(F)cc13)CC1CC1)CO2` (stereo not drawn) (as salt: hydrochloride) [Compound 38, N-(cyclopropylmethyl)-N-[3-(5-fluoro-1-methyl-1H-indol-3-yl)propyl]-N-(5-methoxy-3,4-dihydro-2H-chromen-3-yl)amine], the melting point is 86 °C (dec.).

As for `CCCN(CCCc1c[nH]c2ccc(F)cc12)[C@@H]1CCc2cccc(OC)c2C1` (as salt: hydrochloride) [Compound 47b, (2R)-N-[3-(5-fluoro-1H-indol-3-yl)propyl]-8-methoxy-N-propyl-1,2,3,4-tetrahydronaphthalen-2-amine], the melting point is 110 °C (dec.).

`NC(=O)c1ccc(F)c2c1CC(N(CCCc1c[nH]c3c(Cl)cccc13)C1CCC1)CO2` (stereo not drawn) (as salt: hydrochloride) [Compound 111, 3-[[3-(7-chloro-1H-indol-3-yl)propyl](cyclobutyl)amino]-8-fluorochromane-5-carboxamide]: the melting point was 154 to 163 °C (dec.).

For the molecule `CCN(CCCc1c[nH]c2ccc(F)cc12)C1COc2c(F)ccc(C(=O)NC)c2C1` (stereo not drawn) (as salt: hydrochloride) [Compound 89, 3-{ethyl[3-(5-fluoro-1H-indol-3-yl)propyl]amino}-8-fluoro-N-methylchromane-5-carboxamide], the melting point was 118 °C (dec.).

For the molecule `O=C(NC1CCCC1)c1ccc(F)c2c1CC(N(CCCc1c[nH]c3ccc(F)cc13)C1CCC1)CO2` (stereo not drawn) (as salt: hydrochloride) [Compound 66, 3-{cyclobutyl[3-(5-fluoro-1H-indol-3-yl)propyl]amino}-N-cyclopentyl-8-fluorochromane-5-carboxamide], the melting point is 133 °C (dec.).

As for `CCCN(CCCc1c[nH]c2ccc(F)cc12)C1COc2c(F)ccc(C(=O)NC)c2C1` (stereo not drawn) (as salt: hydrochloride) [Compound 90, 8-fluoro-3-[[3-(5-fluoro-1H-indol-3-yl)propyl](propyl)amino]-N-methylchromane-5-carboxamide], the melting point was 123 °C (dec.).

Turning to `C[C@@H](CCN(C1CCC1)[C@@H]1COc2c(F)ccc(C(N)=O)c2C1)c1c[nH]c2ccc(F)cc12` (as salt: hydrochloride) [Compound 153b, (3S)-3-{cyclobutyl[(3S)-3-(5-fluoro-1H-indol-3-yl)butyl]amino}-8-fluorochromane-5-carboxamide], the melting point was 162 to 168 °C.

In turn, `COc1cccc2c1CC(N(CCCc1c[nH]c3ccccc13)C1CCC1)CO2` (stereo not drawn) (as salt: hydrochloride) [Compound 44, N-cyclobutyl-N-[3-(1H-indol-3-yl)propyl]-N-(5-methoxy-3,4-dihydro-2H-chromen-3-yl)amine] returned a melting point of 113 to 117 °C.

Consider `C[C@@H](CCN(C1CCC1)[C@H]1COc2c(F)ccc(C(N)=O)c2C1)c1c[nH]c2ccc(F)cc12` (as salt: hydrochloride) [Compound 153a, (3R)-3-{cyclobutyl[(3S)-3-(5-fluoro-1H-indol-3-yl)butyl]amino}-8-fluorochromane-5-carboxamide], for which the melting point was 160 to 168 °C (dec.).

For `CCCN(CCCc1c[nH]c2ccc(F)cc12)C1COc2cccc(OC)c2C1` (stereo not drawn) (as salt: hydrochloride) [Compound 23, [3-(5-fluoro-1H-indol-3-yl)propyl]-N-(5-methoxy-chroman-3-yl)propylamine], the melting point is 117 to 120 °C.

In the case of `CCCN(CCCc1c[nH]c2ccc(OC)cc12)C1COc2c(F)ccc(C(N)=O)c2C1` (stereo not drawn) (as salt: hydrochloride) [Compound 106, 8-fluoro-3-[[3-(5-methoxy-1H-indol-3-yl)propyl](propyl)amino]chromane-5-carboxamide], the melting point was 145 to 152 °C (dec.).

For the molecule `O=C(Nc1ccccc1)c1ccc(F)c2c1CC(N(CCCc1c[nH]c3ccc(F)cc13)C1CCC1)CO2` (stereo not drawn) (as salt: hydrochloride) [Compound 70, 3-{cyclobutyl[3-(5-fluoro-1H-indol-3-yl)propyl]amino}-8-fluoro-N-phenylchromane-5-carboxamide], the melting point was 136 °C (dec.).

On to `NC(=O)c1ccc(F)c2c1OCC(NCCCc1c[nH]c3c(F)cc(F)cc13)C2` (stereo not drawn) (as salt: hydrochloride) [Compound 128, 3-{[3-(5,7-difluoro-1H-indol-3-yl)propyl]amino}-5-fluorochromane-8-carboxamide], for which the melting point is 149 °C (dec.).

For the molecule `COc1cccc2c(CCCCN(C3CCC3)C3COc4c(F)ccc(C(N)=O)c4C3)coc12` (stereo not drawn) (as salt: hydrochloride) [Compound 171, 3-{cyclobutyl[4-(7-methoxy-1-benzofuran-3-yl)butyl]amino}-8-fluorochromane-5-carboxamide], the melting point was 122 to 127 °C (dec.).

For `CCCN(CCCCc1c[nH]c2ccc(F)cc12)C1COc2c(C(N)=O)ccc(F)c2C1` (stereo not drawn) (as salt: hydrochloride) [Compound 124, 5-fluoro-3-[[4-(5-fluoro-1H-indol-3-yl)butyl](propyl)amino]chromane-8-carboxamide], the melting point is 116 °C (dec.).

As for `CCCN(CCCc1c[nH]c2ccc(F)cc12)[C@H]1CCc2cccc(OC)c2C1` (as salt: hydrochloride) [Compound 47a, (−)-N-[3-(5-fluoro-1H-indol-3-yl)propyl]-8-methoxy-N-propyl-1,2,3,4-tetrahydronaphthalen-2-amine], the melting point is 107 °C (dec.).

On to `CCN(CCCc1c[nH]c2c(F)cc(F)cc12)C1COc2c(C(N)=O)ccc(F)c2C1` (stereo not drawn) (as salt: hydrochloride) [Compound 132, 3-[[3-(5,7-difluoro-1H-indol-3-yl)propyl](ethyl)amino]-5-fluorochromane-8-carboxamide], for which the melting point was 125 °C (dec.).

Consider `NC(=O)c1ccc(F)c2c1CC(N(CCCc1c[nH]c3ccc(F)cc13)C1CCC1)CO2` (single isomer, unassigned; (+)) (as salt: hydrochloride) [Compound 4a, (+)-3-{cyclobutyl[3-(5-fluoro-1H-indol-3-yl)propyl]amino}-8-fluorochromane-5-carboxamide], for which the melting point is 129 °C (dec.).

In the case of `O=C(O)c1ccc(F)c2c1CC(N(CCCc1c[nH]c3ccc(F)cc13)C1CCC1)CO2` (stereo not drawn) (as salt: hydrochloride) [Compound 56, 3-{cyclobutyl[3-(5-fluoro-1H-indol-3-yl)propyl]amino}-8-fluorochromane-5-carboxylic acid], the melting point is 140 °C (dec.).
